Data: patent US20250361235A1, “PIPERIDINYL-METHYLPURINE BENZENES AND RELATED COMPOUNDS AND THEIR USE IN TREATING DISEASES AND CONDITIONS” (K36 Therapeutics, Inc., priority 2022, published 2025)

Biological target: recombinant human NSD2 (Homo sapiens (Human), UniProt O96028)
Assay: NSD2 inhibitory activity, modified RBC HotSpot HMT Assay (3H-SAM, oligonucleosome substrate)
Type: biochemical
Conditions: recombinant human NSD2 (2 nM), chicken oligonucleosomes 0.05 mg/ml, 3H-SAM 1 μM, 1 hour at 30° C.
Method: Exemplary compounds were tested for NSD2 inhibitory activity using a modified RBC HotSpot HMT Assay.
A reaction mixture was prepared by adding oligonucleosomes from Chicken (0.05 mg/ml) to freshly prepared reaction buffer containing 50 mM Tris-HCl (pH 8.5), 50 mM NaCl, 5 mM MgCl2, 0.01% Brij35, 1 mM DTT, and 1% DMSO followed by the addition of recombinant human NSD2, (amino acids 2-end) with N-terminal His tag (2 nM; GenBank Accession No. NM_001042424; MW=155.5 kDa; expressed in Sf9 insect cells) and gentle mixing. The test compounds were diluted in DMSO, added to the reaction mixture in nanoliter amounts by using Acoustic Technology (Echo 550, LabCyte Inc. Sunnyvale, CA) and incubated for 20 minutes at room temperature. The reaction was initiated by the addition of S-Adenosyl-L-[methyl-^3H] methionine (3H-SAM; 1 μM), and the mixture was incubated for 1 hour at 30° C. The reaction mixture was delivered to filter paper and the methylated substrate was quantified by scintillation counting. Data analysis was performed using Excel and GraphPad Prism software for IC50 curve fits. For additional information on the histone methyltransferase assay, see, for example, Horiuchi K Y, et al., “Assay Development for Histone Methyltransferases,” Assay Drug Dev Technol. 2013 May; 11 (4): 227-36.

recombinant human NSD2, sequence (O96028 2-1365 limits assumed): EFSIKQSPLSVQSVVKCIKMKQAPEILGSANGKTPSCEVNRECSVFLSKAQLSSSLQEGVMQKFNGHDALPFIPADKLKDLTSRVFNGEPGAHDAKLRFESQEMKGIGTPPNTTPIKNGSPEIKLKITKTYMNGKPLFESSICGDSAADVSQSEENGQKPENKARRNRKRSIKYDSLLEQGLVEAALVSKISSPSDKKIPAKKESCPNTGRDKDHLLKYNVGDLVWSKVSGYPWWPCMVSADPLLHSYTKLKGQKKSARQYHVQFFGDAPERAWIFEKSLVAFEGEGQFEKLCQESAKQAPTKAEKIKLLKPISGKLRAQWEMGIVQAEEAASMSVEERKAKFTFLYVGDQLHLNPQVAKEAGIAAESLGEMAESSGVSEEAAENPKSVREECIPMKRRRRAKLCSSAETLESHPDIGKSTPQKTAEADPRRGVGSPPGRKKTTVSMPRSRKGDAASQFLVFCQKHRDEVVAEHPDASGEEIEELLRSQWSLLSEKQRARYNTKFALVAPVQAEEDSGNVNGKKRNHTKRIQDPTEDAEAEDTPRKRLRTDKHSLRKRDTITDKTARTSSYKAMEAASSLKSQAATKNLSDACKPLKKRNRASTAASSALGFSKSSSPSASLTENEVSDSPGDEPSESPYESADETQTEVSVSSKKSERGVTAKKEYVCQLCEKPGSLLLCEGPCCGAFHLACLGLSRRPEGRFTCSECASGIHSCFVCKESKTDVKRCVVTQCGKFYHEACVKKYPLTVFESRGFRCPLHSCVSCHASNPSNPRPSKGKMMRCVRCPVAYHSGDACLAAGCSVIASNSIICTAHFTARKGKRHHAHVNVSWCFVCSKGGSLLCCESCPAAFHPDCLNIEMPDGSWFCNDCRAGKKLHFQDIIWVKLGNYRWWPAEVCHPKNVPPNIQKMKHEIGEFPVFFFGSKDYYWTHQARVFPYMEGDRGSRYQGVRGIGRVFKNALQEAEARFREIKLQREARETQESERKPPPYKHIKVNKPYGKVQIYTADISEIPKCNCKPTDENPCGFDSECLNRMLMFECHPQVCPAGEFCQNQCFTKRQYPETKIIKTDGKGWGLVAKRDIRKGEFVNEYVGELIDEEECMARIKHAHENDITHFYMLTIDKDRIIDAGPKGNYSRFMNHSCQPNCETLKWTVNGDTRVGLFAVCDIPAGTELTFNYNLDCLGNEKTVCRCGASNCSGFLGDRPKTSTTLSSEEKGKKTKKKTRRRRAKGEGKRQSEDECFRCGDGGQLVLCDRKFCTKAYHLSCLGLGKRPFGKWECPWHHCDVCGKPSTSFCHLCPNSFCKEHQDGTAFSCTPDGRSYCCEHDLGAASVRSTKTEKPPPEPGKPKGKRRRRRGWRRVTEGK

Compound	IC50 [nM]
COc1cc(F)c(-c2ccc(N3CCC[C@](N)([C@H](O)C(F)F)C3)c(Cn3cnc4c(N)ncnc43)n2)cc1F [III-1, (S)-1-((R)-3-amino-1-(2-((6-amino-9H-purin-9-yl)methyl)-6-(2,5-difluoro-4-methoxyphenyl)pyridin-3-yl)piperidin-3-yl)-2,2-difluoroethan-1-ol]	> 1000
COc1cc(F)c(-c2ccc(N3CCC[C@](N)([C@H](O)C(F)F)C3)c(Cn3cnc4c(N)ncnc43)c2)cc1F [Compound I-1, (S)-1-((R)-3-amino-1-(3-((6-amino-9H-purin-9-yl)methyl)-2′,5′-difluoro-4′-methoxy-[1,1′-biphenyl]-4-yl)piperidin-3-yl)-2,2-difluoroethan-1-ol]	1 to 10
COc1cc(F)c(-c2cnc(N3CCC[C@](N)([C@H](O)C(F)F)C3)c(Cn3cnc4c(N)ncnc43)c2)cc1F [II-1, (S)-1-((R)-3-amino-1-(3-((6-amino-9H-purin-9-yl)methyl)-5-(2,5-difluoro-4-methoxyphenyl)pyridin-2-yl)piperidin-3-yl)-2,2-difluoroethan-1-ol]	10 to 1000
